# Assay results published in patent publication US9078864B2, “Agonists for antimicrobial peptide systems” (priority 2008, dated 2015).
# What was measured:
# cathelicidin = settings: 4000 IU/d oral for 21 days, atopic dermatitis subjects; cited from earlier work
# [1] = system: CAMP gene, encoding LL-37; experiment: CAMP (LL-37) mRNA expression in VA10 lung epithelial cells, real time RT-PCR; format: cell-based, human; settings: VA10 cells, 4 mM, 24 hours
# Protocol: LL-37 expression in lung epithelial cells treated with different agents Lung epithelial cells (VA 10) were grown to confluency under standard conditions and the agents to be tested added at the indicated concentrations (see below). mRNA was isolated 24 hours after treatment and measured by real time reverse transcription PCR.
# Six-well plates were seeded with 1.0×10^6 cells per well and grown for two days. Medium was then exchanged and different wells were left untreated, supplemented with 2 mM sodium butyrate or 2 mM sodium 4-phenylbutyrate. The cells were incubated for 48 h and total RNA was prepared using the RNEasy kit (Qiagen). Total RNA concentrations were measured using the Quant-iT RiboGreen RNA assay kit (Invitrogen). Superscript III first-strand synthesis system (Invitrogen) was used to synthesize cDNA using random primers according to the protocol of the manufacturer. […] Results were normalized to total RNA quantity, presented as relative fold induction of untreated control cells.
# Total RNA was isolated from the cells and CAMP mRNA expression levels analyzed by real time RT-PCR.
# LL-37 mRNA = settings: colonocytes in vitro; cited from earlier work
# [2] = system: shigellosis; CAP-18 (the rabbit homologue of LL-37); settings: rabbits; cited from earlier work
# defensin = settings: similar concentrations, FIG. 7 of US2002-0076393; cited from earlier work
# [3] = cited from earlier work
# [4] = system: PBA and butyrate induced CAMP gene expression; experiment: Inhibition of PBA and butyrate induced CAMP gene expression by cycloheximide in VA10 cells; format: cell-based, human; settings: 20 μg/ml one hour prior to stimulation, 24 hours
# Protocol: VA10 cells were treated with 4 mM PBA or butyrate (BA) in the presence or absence of 20 μg/ml cycloheximide. CAMP mRNA levels were determined by real time RT-PCR. Individual samples were normalized to total RNA input. Results were normalized to expression in control samples (solvent) where controls were given the arbitrary value of one. Normalized data is plotted as mean plus standard error of the mean from at least three independent experiments. *: p<0.05; **: p<0.01; ***: p<0.001.
# In order to assess whether the PBA and butyrate induction pathways of CAMP gene expression are direct, VA10 cells were treated with PBA or butyrate in the presence and absence of cycloheximide (CHX). After 24 hours of incubation, total RNA was isolated and CAMP mRNA levels measured using real time RT-PCR.
smiles,measurement,setting,value
C=C1CC[C@H](O)C/C1=C/C=C1\CCC[C@]2(C)[C@@H]([C@H](C)CCCC(C)C)CC[C@@H]12 [oral vitamin D],cathelicidin expression in AD lesional skin,cathelicidin,statistically significant increase
"CC(Cc1ccccc1)C(=O)O (stereo not drawn) [ST7, α-methylhydrocinnamate]",CAMP mRNA expression,[1],significantly increased
"CCCC(=O)[O-].[Na+] [butyrate, sodium butyrate]",LL-37 mRNA expression,LL-37 mRNA,increases
same,CAP-18 in the surface epithelium,[2],significant upregulation
same,clinical illness and bacterial load in the stool,[2],reduced clinical illness and bacterial load in the stool
same,activity in stimulating production of defensin relative to isoleucine,defensin,less active than isoleucine at similar concentrations
same,safety of topical (enema) dosing,"[3]; 528 mg/day to 1.12 g/day, 2-6 weeks, adult IBD patients",safe with no obvious side effects
same,safety of oral dosing,"[3]; daily oral dose of 4 g, colonic-targeted tablets, 6 weeks, IBD patients",safe and well tolerated without any adverse effects
CC(C)C(=O)O [isobutyrate],LL-37 mRNA expression,LL-37 mRNA,increases
"C[C@@H]1C[C@@H]([C@H](O)CC2CC(=O)NC(=O)C2)C(=O)[C@@H](C)C1 [CHX, cycloheximide]",PBA induced CAMP gene expression in presence of cycloheximide,[4]; 4 mM PBA,effectively blocked
same,butyrate induced CAMP gene expression in presence of cycloheximide,[4]; 4 mM butyrate,effectively blocked
"CCC(C)(C)C(=O)O [ST20, 2,2-dimethylbutyrate]",CAMP mRNA expression,[1],no apparent effect
CCC(=O)O [propionate],LL-37 mRNA expression,LL-37 mRNA,increases
